# Target: T1, androgen receptor (AR) (Rattus norvegicus, UniProt P15207)
# T1 construct: Ventral prostates were obtained form rats castrated 24 h prior to sacrifice; from tissue; host or cells: rat ventral prostate cytosol (castrated rats, charcoal-treated)
# T1 sequence (P15207 1-902): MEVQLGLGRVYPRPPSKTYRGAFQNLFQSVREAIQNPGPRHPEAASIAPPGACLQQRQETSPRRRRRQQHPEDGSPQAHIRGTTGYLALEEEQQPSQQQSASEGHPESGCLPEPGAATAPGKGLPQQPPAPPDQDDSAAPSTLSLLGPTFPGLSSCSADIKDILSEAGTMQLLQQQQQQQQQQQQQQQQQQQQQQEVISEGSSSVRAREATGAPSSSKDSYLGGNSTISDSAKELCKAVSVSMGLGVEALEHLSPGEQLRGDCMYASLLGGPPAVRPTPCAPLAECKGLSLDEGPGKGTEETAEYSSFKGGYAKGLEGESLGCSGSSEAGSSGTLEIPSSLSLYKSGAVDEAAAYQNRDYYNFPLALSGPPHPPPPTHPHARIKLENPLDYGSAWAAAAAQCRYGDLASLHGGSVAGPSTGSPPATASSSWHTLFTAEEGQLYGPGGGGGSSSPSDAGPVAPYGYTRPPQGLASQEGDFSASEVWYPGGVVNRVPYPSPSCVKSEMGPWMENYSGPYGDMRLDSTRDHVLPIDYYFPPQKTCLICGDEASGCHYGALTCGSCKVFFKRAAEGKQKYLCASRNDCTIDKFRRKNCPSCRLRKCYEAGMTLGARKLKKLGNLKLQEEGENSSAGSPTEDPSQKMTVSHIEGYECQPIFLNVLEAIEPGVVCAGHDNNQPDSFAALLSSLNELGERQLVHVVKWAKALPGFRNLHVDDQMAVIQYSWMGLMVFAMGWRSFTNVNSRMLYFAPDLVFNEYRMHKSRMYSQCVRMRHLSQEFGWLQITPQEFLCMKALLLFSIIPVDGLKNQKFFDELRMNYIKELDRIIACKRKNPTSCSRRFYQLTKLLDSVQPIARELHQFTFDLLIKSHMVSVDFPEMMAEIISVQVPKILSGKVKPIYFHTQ
# Assay: AR binding assay, competition with [3H]-mibolerone binding in rat ventral prostate cytosol
# Details: 1 nM [3H]-mibolerone, overnight at 0° C.; for inhibition at 0.2 µM / Inhibition (%) of [3H]-mibolerone binding at 0.2 μM: test compound 0.2 μM; for inhibition at 2 µM / Inhibition (%) of [3H]-mibolerone binding at 2.0 μM: test compound 2.0 μM
# Procedure: Ventral prostates were obtained form rats castrated 24 h prior to sacrifice. Fresh prostate was minced and washed with Buffer A (Schilling and Liao, Prostate, 5:581-588, 1984). The minces were then homogenized in 3× volume of Buffer A containing protease inhibitors (Complete, Mini, EDTA-free Roche). The homogenate was centrifuged at 30000 g for 30 min. The resultant supernatants were treated with 1×volume of dextran-coated charcoal solution (12.5 g activated charcoal, 12.5 g dextran per liter of buffer A) to remove endogenous steroids. The samples were incubated for 5 min and centrifuged at 16000 g for 10 min. Aliquots of the charcoal-treated cytosol were taken for androgen receptor assays. All procedures were carried out at 0-4° C.
# Cytosol androgen receptor concentration was determined as described (Isomaa et al., Endocrinology, 111: 833-843, 1982) with minor modifications. Cytosol preparations were prepared as described above, and bound and free steroids were separated by treatment with an equal volume of dextran-charcoal suspension for 5 min at 4° C. followed by centrifugation at 16000 g for 10 min. Bound radioactivity was determined by counting supernatant fractions in 1 ml of OptiPhase HiSafe3 or OptiPhase Supermix (PerkinElmer).
# Cytosol preparations were labelled with 1 nM [^3H]-mibolerone overnight at 0° C. (total). To determine AR binding activity of the compounds of the present invention (test compounds), the ability of test compounds to compete with [^3H]7α,17α-dimethyl-17β-hydroxy-4-estren-3-one ([^3H]-mibolerone) binding was studied. 1 nM [^3H]-mibolerone and test compounds in two concentrations (0.2 and 2 uM) were incubated overnight at 0° C. To determine non-specific binding, parallel incubations were carried out using 1 nM concentration [^3H]-mibolerone with 500-fold molar excess of unlabelled testosterone. Two to four replicates were used for each sample. After incubation, bound and free steroids were separated as described above and bound radioactivity was determined. The ability of the test compounds to bind AR is reported as reduction in bound radioactivity obtained with 1 nM [^3H]-mibolerone. The results (% inhibition) were calculated as: % inhibition=100−(100×(averagetest compound/averagetotal)).
Compound,inhibition at 0.2 µM [%],inhibition at 2 µM [%],Inhibition (%) of [3H]-mibolerone binding at 0.2 μM [%],Inhibition (%) of [3H]-mibolerone binding at 2.0 μM [%]
"Cc1cc(NC(=O)C(C)(O)COc2ccc(Br)cc2)ccc1[N+](=O)[O-] (stereo not drawn) [Example 24, 3-(4-Bromophenoxy)-2-hydroxy-2-methyl-N-(3-methyl-4-nitrophenyl)propionamide]",75,93,,
"COc1ccc(OCC(C)(O)C(=O)Nc2ccc([N+](=O)[O-])c(C)c2)cc1OC (stereo not drawn) [Example 27, 3-(3,4-Dimethoxyphenoxy)-2-hydroxy-2-methyl-N-(3-methyl-4-nitrophenyl)propionamide]",34,89,,
"CC(=O)Nc1ccc(OCC(C)(O)C(=O)Nc2ccc([N+](=O)[O-])c(C)c2)cc1F (stereo not drawn) [Example 2, 3-(4-Acetylamino-3-fluorophenoxy)-2-hydroxy-2-methyl-N-(3-methyl-4-nitrophenyl)propionamide]",93,100,,
"Cc1cc(NC(=O)C(C)(O)COc2cccc(F)c2)ccc1[N+](=O)[O-] (stereo not drawn) [Example 18, 3-(3-Fluorophenoxy)-2-hydroxy-2-methyl-N-(3-methyl-4-nitrophenyl)propionamide]",90,99,,
"Cc1cc(NC(=O)C(C)(O)CNc2ccc(F)cc2)ccc1[N+](=O)[O-] (stereo not drawn) [Example 52, 3-(4-Fluorophenylamino)-2-hydroxy-2-methyl-N-(3-methyl-4-nitrophenyl)propionamide]",90,115,,
"Cc1cc(NC(=O)C(C)(O)COc2ccc(CCCCl)cc2)ccc1[N+](=O)[O-] (stereo not drawn) [Example 79, 3-[4-(3-Chloropropyl)phenoxy]-2-hydroxy-2-methyl-N-(3-methyl-4-nitrophenyl)propionamide]",89,98,,
"Cc1cc(NC(=O)C(C)(O)COc2ccc3cc(Br)ccc3c2)ccc1[N+](=O)[O-] (stereo not drawn) [Example 30, 3-(6-Bromonaphtalen-2-yloxy)-2-hydroxy-2-methyl-N-(3-methyl-4-nitrophenyl)-propionamide]",,,80,99
"Cc1cc(NC(=O)C(C)(O)COc2cccc(Cl)c2Cl)ccc1[N+](=O)[O-] (stereo not drawn) [Example 10, 3-(2,3-Dichlorophenoxy)-2-hydroxy-2-methyl-N-(3-methyl-4-nitrophenyl)propionamide]",5,83,,
"Cc1cc(NC(=O)C(C)(O)COc2ccc(CCO)cc2)ccc1[N+](=O)[O-] (stereo not drawn) [Example 20, 2-Hydroxy-3-[4-(2-hydroxyethyl)phenoxy]-2-methyl-N-(3-methyl-4-nitrophenyl)propionamide]",13,83,,
"Cc1cc(NC(=O)C(C)(O)COc2ccc(F)c(Cl)c2)ccc1[N+](=O)[O-] (stereo not drawn) [Example 8, 3-(3-Chloro-4-fluorophenoxy)-2-hydroxy-2-methyl-N-(3-methyl-4-nitrophenyl)propionamide]",93,109,,
"Cc1cc(NC(=O)C(C)(O)COc2ccncc2)ccc1[N+](=O)[O-] (stereo not drawn) [Example 58, 2-Hydroxy-2-methyl-N-(3-methyl-4-nitrophenyl)-3-(pyridin-4-yloxo)propionamide]",,,84,93
"Cc1cc(NC(=O)C(C)(O)COc2c(Cl)cccc2Cl)ccc1[N+](=O)[O-] (stereo not drawn) [Example 21, 3-(2,6-Dichlorophenoxy)-2-hydroxy-2-methyl-N-(3-methyl-4-nitrophenyl)propionamide]",26,91,,
"CC(O)(COc1ccc(C#N)c(F)c1)C(=O)Nc1ccc([N+](=O)[O-])c(CO)c1 (stereo not drawn) [Example 51, 3-(4-Cyano-3-fluorophenoxy)-2-hydroxy-N-(3-hydroxymethyl-4-nitrophenyl)-2-methylpropionamide]",73,92,,
"Cc1cc(NC(=O)C(C)(O)COc2ccc(OC(F)(F)F)cc2)ccc1[N+](=O)[O-] (stereo not drawn) [Example 9, 2-Hydroxy-2-methyl-N-(3-methyl-4-nitrophenyl)-3-(4-trifluoromethoxyphenoxy)propionamide]",41,102,,
"CC(=O)Nc1ccc(OC[C@](C)(O)C(=O)Nc2ccc([N+](=O)[O-])c(C)c2)cc1F [Example 4, (2S)-3-(4-Acetylamino-3-fluorophenoxy)-2-hydroxy-2-methyl-N-(3-methyl-4-nitrophenyl)propionamide]",90,88,,
"Cc1cc(NC(=O)C(C)(O)COc2ccc(NC(=O)C(F)(F)F)cc2)ccc1[N+](=O)[O-] (stereo not drawn) [Example 13, 2-Hydroxy-2-methyl-N-(3-methyl-4-nitrophenyl)-3-[4-(2,2,2-trifluoroacetylamino)phenoxy]propionamide]",77,90,,
"Cc1cc(NC(=O)C(C)(O)COc2ccc(C(=O)c3ccc(Cl)cc3)cc2)ccc1[N+](=O)[O-] (stereo not drawn) [Example 36, 3-[4-(4-Chlorobenzoyl)phenoxy]-2-hydroxy-2-methyl-N-(3-methyl-4-nitrophenyl)propionamide]",3,50,,
"Cc1cc(NC(=O)C(C)(O)COc2ccccc2F)ccc1[N+](=O)[O-] (stereo not drawn) [Example 19, 3-(2-Fluorophenoxy)-2-hydroxy-2-methyl-N-(3-methyl-4-nitrophenyl)propionamide]",83,99,,
"CCOC(=O)c1ccc(OCC(C)(O)C(=O)Nc2ccc([N+](=O)[O-])c(C)c2)cc1 (stereo not drawn) [Example 7, 4-[2-Hydroxy-2-(3-methyl-4-nitrophenylcarbamoyl)propoxy]benzoic acid ethyl ester]",74,98,,
"CCOC(=O)Nc1ccc(OCC(C)(O)C(=O)Nc2ccc([N+](=O)[O-])c(C)c2)cc1F (stereo not drawn) [Example 50, {2-Fluoro-4-[2-hydroxy-2-(3-methyl-4-nitrophenylcarbamoyl)propoxy]-phenyl}carbamic acid ethyl ester]",96,99,,
"Cc1cc(NC(=O)C(C)(O)COc2ccc(C#N)cc2)ccc1[N+](=O)[O-] (stereo not drawn) [Example 17, 3-(4-Cyanophenoxy)-2-hydroxy-2-methyl-N-(3-methyl-4-nitrophenyl)propionamide]",95,98,,
"Cc1cc([N+](=O)[O-])ccc1NC(=O)C(C)(O)COc1ccc(C#N)c(F)c1 (stereo not drawn) [Example 64, 3-(4-Cyano-3-fluorophenoxy)-2-hydroxy-2-methyl-N-(2-methyl-4-nitrophenyl)propionamide]",79,89,,
"Cc1cc(NC(=O)C(C)(O)COc2ccc(OCCCl)cc2)ccc1[N+](=O)[O-] (stereo not drawn) [Example 80, 3-[4-(2-Chloroethoxy)phenoxy]-2-hydroxy-2-methyl-N-(3-methyl-4-nitrophenyl)propionamide]",87,99,,
"Cc1cc(NC(=O)C(C)(O)COc2ccc(F)c(F)c2)ccc1[N+](=O)[O-] (stereo not drawn) [Example 28, 3-(3,4-Difluorophenoxy)-2-hydroxy-2-methyl-N-(3-methyl-4-nitrophenyl)propionamide]",90,88,,
